Test results from patent US20200022998A1, “MEDICAL USE OF NOTCH4 OR INHIBITORS THEREOF” (BEIJING INSTITUTE OF GENOMICS, CHINESE ACADEMY OF SCIENCES, priority 2016, published 2020).

What was measured:
Assay type in all cases: cell-based, human
[1] = system: iPSCs-derived CD34+ cells; test: polyploid detection, iPSC-derived CD34+ cells; conditions: 10 μM; Notch inhibitor added since Day 5; DMSO about 18%; FIG. 17
Method: iPSC-derived CD34^+ cells (prepared by the method as described in Example 3-2) and umbilical cord blood-derived CD34^+ cells were seeded at 1*10^6 cells per well to 4 ml StemSpan™ SFEM 11+50 ng/ml SCF+50 ng/ml TPO+50 ng/ml IL-6+20 ng/ml IL-3, in a 12-well plate, with 1 ml medium for each well, and 3 wells in total for each cell line, […] The liquid was changed every 3 days, and the culture condition was 37° C., 5% CO2. After iPSC-derived CD34^+ cells were incubated for 6 days, and umbilical cord blood-derived CD34^+ cells were incubated for 9 days, the following experiment was carried out.
Cells were labeled with CD61-FITC flow cytometric antibody at 4° C. for 30 min. The cells were washed with PBS once, and fixed with 70% ethanol at 4° C. overnight. At the second day, the cells were washed with PBS once. After centriguation, 1 ml PBE (PBS containing 2% serum) +100 μg/ml RNase A +50 μg/ml Propidium Iodide, was added, and incubation was carried out in dark at room temperature for 30 min. The cells were washed with PBS once, and the number of cells (≥8N) in CD61^+ cell population was determined by flow cytometry.

[2] = system: umbilical cord blood-derived CD34+ cells; test: megakaryocyte colony forming unit (MK-CFU) experiment, umbilical cord blood-derived CD34+ cells; conditions: 10 μM; FIG. 16
Method: Megakaryocyte colony forming unit (MK-CFU) experiment: at Day 14, the cells resulted from induced differentiation were collected, and 7,500 single cells were seeded to collagen-based MegaCult-C Kit. After incubation for 10-12 days, the cells were stained with anti-CD41 antibody and counted. CD41^+ megakaryocyte colonies were counted.

[3] = system: umbilical cord blood-derived CD34+ cells; test: proplatelet formation, umbilical cord blood-derived CD34+ cells; conditions: 10 μM; DMSO about 44%; FIG. 20D
Method: (§1) iPSC-derived CD34^+ cells (prepared by the method as described in Example 3-2) and umbilical cord blood-derived CD34^+ cells were seeded at 1*10^6 cells per well to 4 ml StemSpan™ SFEM 11+50 ng/ml SCF+50 ng/ml TPO+50 ng/ml IL-6+20 ng/ml IL-3, in a 12-well plate, with 1 ml medium for each well, and 3 wells in total for each cell line, to which 10 μM RO4929097, 10 μM DAPT, and the same volume of DMSO as control, were added, respectively, and the time was recorded as Day 0. The liquid was changed every 3 days, and the culture condition was 37° C., 5% CO2. After iPSC-derived CD34^+ cells were incubated for 6 days, and umbilical cord blood-derived CD34^+ cells were incubated for 9 days, the following experiment was carried out.
(§2) Proplatelet formation of MKs referred to mature megakaryocytes, which extended long and branched filaments and cytoplasmic protrusions.

[4] = system: iPSCs-derived CD34+ cells; test: proplatelet formation, iPSC-derived CD34+ cells; conditions: 10 μM; DMSO about 47%; FIG. 19D
Method: as §1, §2

[5] = system: umbilical cord blood-derived CD34+ cells; test: in vitro megakaryocyte lineage differentiation of umbilical cord blood-derived CD34+ cells, flow cytometry; conditions: 10 μM; for number of mature megakaryocytes (CD41+CD42+) produced, increase vs control group: FIG. 15; for proportion of mature megakaryocyte (CD61+), increase vs control group / proportion of mature megakaryocytes MK (CD41+CD42+) produced, increase vs control group: cells collected at D14, FIG. 14
Method: (1) CD34^+ cells in umbilical cord blood were obtained by Ficoll-Paque PLUS density gradient centrifugation and magnetic bead sorting using CD34 MicroBead Kit. As to the particular steps, please refer to (GE Healthcare Life Sciences, http://www.gelifesciences.com), (Miltenyi Biotec, http://www.miltenyibiotec.com.cn).
(2) Differentiation of umbilical cord blood-derived CD34^+ cells into megakaryocytes: umbilical cord blood-derived CD34^+ cells were counted, and seeded at 1*10^6 cells to 4 ml StemSpan™ SFEM 11+50 ng/ml SCF+50 ng/ml TPO+50 ng/ml IL-6+20 ng/ml IL-3 in a 12-well plate, with 1 ml medium for each well, and four wells in total, to which 10 μM R04929097, 10 μM L-685458, 10 μM DAPT, and the same volume of DMSO as control were added, respectively, and the time was recorded as Day 0. The liquid was changed every 3 days, and the culture condition was 37° C., 5% CO2. After incubation for 6 days, the cell density was high, and the cells in each well were divided into two wells of a 12-well plate, with 2 ml medium for each well. The inhibitors were added at the same concnetrations as described above. The cells were collected at D14, counted, and detected for cell surface markers (CD41, CD42, CD61) by flow cytometer.
As to the collection of umbilical cord blood-derived CD34^+ cells, in vitro megakaryocytic differentiation and detection, please refer to Example 4-1.

C[C@H](NC(=O)Cc1cc(F)cc(F)c1)C(=O)N[C@H](C(=O)OC(C)(C)C)c1ccccc1 [DAPT]
proportion of polyploid megakaryocytes (≥8N) in CD61+ megakaryocytes [1]: ~21% | ability of megakaryocyte progenitor cells to form mature MK colony (CFU-MK), increase vs control group [2]: 2.8 folds | proportion of proplatelet-bearing MKs in 100 differentiated cells [3]: ~42% | proportion of proplatelet-bearing MKs in 100 differentiated cells [4]: ~50% | number of mature megakaryocytes (CD41+CD42+) produced, increase vs control group [5]: 2.9 folds | proportion of mature megakaryocyte (CD61+), increase vs control group [5]: 2.5 folds | proportion of mature megakaryocytes MK (CD41+CD42+) produced, increase vs control group [5]: 4.1 folds

CC(C)(C(=O)NCC(F)(F)C(F)(F)F)C(=O)N[C@@H]1C(=O)Nc2ccccc2-c2ccccc21 [RO4929097]
proportion of polyploid megakaryocytes (≥8N) in CD61+ megakaryocytes [1]: about 17% | ability of megakaryocyte progenitor cells to form mature MK colony (CFU-MK), increase vs control group [2]: 2.8 folds | proportion of proplatelet-bearing MKs in 100 differentiated cells [3]: about 40% | proportion of proplatelet-bearing MKs in 100 differentiated cells [4]: about 46% | number of mature megakaryocytes (CD41+CD42+) produced, increase vs control group [5]: 2.9 folds | proportion of mature megakaryocyte (CD61+), increase vs control group [5]: 3.1 folds | proportion of mature megakaryocytes MK (CD41+CD42+) produced, increase vs control group [5]: 4.5 folds
